Test results from patent US20190275052A1, “COMBINATION THERAPY OF AN HBV CAPSID ASSEMBLY INHIBITOR AND A NUCLEOS(T)IDE ANALOGUE” (Hoffmann-La Roche Inc., priority 2016, published 2019).
Like-named read-outs stand apart in the source and are kept apart here.

How the values were obtained:
HBV [1] = assay: anti-HBV activity in HBV infected differentiated HepaRG cells (HBV DNA in supernatant by qPCR; checkerboard combination, isobologram model); type: cell-based, HBV (genotype D); conditions: Hepatitis B virus, 264 h, mean of 3 independent experiments
Method: HepG2.2.15 cells were cultured in DMEM+Glutamax I (Gibco, #21885) supplemented with 10% FBS, 1% Pen/Strep (Gibco, #15140) and G-418 (250 μg/mL) and used for production of infectious HBV (genotype D). 90% confluent cells from three T175 flasks were trypsinized and transferred into one collagen coated hyperflask (550 mL). Once the cells are confluent, medium was changed to DMEM+Glutamax I with 1% DMSO and 2.5% FBS. Once the cells were slightly over confluent, medium was changed to DMEM/F12+Glutamax I (Gibco, #31331) supplemented with MEM non-essential amino acids (6 mL, Gibco, #11140), Pen/Strep (6 mL), sodium pyruvate (6 mL), DMSO (9 mL) and FBS (10 mL) (all per 500 mL medium). Medium was changed every 3 days and supernatants were harvested for 2 weeks. Virus was concentrated from supernatants by PEG precipitation and the titer (genome equivalent (GE)/mL) was determined by qPCR. Briefly, supernatants were mixed with 40% PEG solution at a ratio of 4:1, incubated on a shaker at 4° C. overnight and then centrifuged using 50 mL falcon tubes at 4° C. for one hour at 3724 g (RCF). The supernatant was discarded and the centrifugation step was repeated with new supernatant reusing the tubes until all PEG-precipitated supernatant was processed. The pellets were re-suspended in William's E Medium (Gibco, #22551) at a concentration of 10^7-10^9 genome equivalents (GE) per mL and frozen at −80° C. DNA copy number calculation was based on a standard curve generated from HBV plasmid dilutions with known concentrations.
HepaRG cells (Biopredic International, Saint-Gregoire, France) were cultured in working growth medium (500 mL Willams E Medium with 50 mL HepaRG Growth supplement from Biopredic, 5 mL Glutamax-I (Gibco, #35050) and 5 mL Pen/Strep) for 2 weeks. After 2 weeks medium was changed to differentiation medium containing 1.8% DMSO (500 mL Willams E Medium with 50 mL HepaRG Growth supplement from Biopredic, 5 mL Pen/Strep, 5 mL Glutamax-I and 9 mL DMSO). Medium was changed twice a week up to 2 weeks. Once fully differentiated, cells were trypsinized and seeded into collagenated 96 well plates (50,000 cells/well in 100 μL) in differentiation medium. Cells were cultured at least 5 days in the 96 well plates before they were infected with HBV.
For HBV infection of differentiated HepaRG cells, differentiation medium was removed and new differentiation medium (120 μL/well) containing 4% PEG-8000 and virus stock (20 to 30 GE/cell) was added. Cells were cultured at 37° C. for 16 to 20 h before medium was removed, cells were washed 4 times with PBS and new differentiation medium (120 μL/well) was added.
At day 4 post infection, medium was removed and 100 μL new differentiation medium was added to each well. 3-fold serial dilutions (5 μL compound to 10 μL DMSO) of Drug A and Drug B were prepared in 100% DMSO starting with 15 μL undiluted compound solution (400-fold concentration of highest test concentration). 5 μL of drug A and B dilutions were then added to 990 μL medium (containing 0.8% DMSO) in a 96 deep well plate in a fashion according to the design shown in Table 3. 100 μL thereof were added to the HepaRG cells with a final DMSO concentration of 1.8%. Drug A tested was Compound 6; Drug B tested was Compound 1, Compound 2, Compound 3, Compound 4 or Compound 5. The concentration ranges tested were 1 nM to 0.01 nM for Compound 6, and 300 nM to 0.412 nM for Compound 1 to 5. Medium was replaced by new medium with compound at day 7 post infection and at day 11 post infection cell supernatants were harvested and directly used for HBV DNA extraction or stored at −20° C. Cell viability of the cells was determined using the cell viability assay described below.
HBV DNA from HepaRG cell supernatants was extracted using the MagNA Pure 96 (Roche) robot. 100 μL of the supernatants were mixed in a processing cartridge with 200 μL MagNA Pure 96 external lysis buffer (Roche, Cat. No. 06374913001) and incubated for 10 minutes. […]

HBV [2] = conditions: HBV infected transgenic or humanized mice; Deres 2003, Brezillon 2011; cited from earlier work
[3] = individual compound alone, from the combination studies, HBV DNA in supernatant day 11 post infection, read-out: EC50 ± SD (n) Drug A

Structure (SMILES) | EC50 (HBV [1]; [3]) | further results
COC(=O)C1=C(CN2CCOC[C@H]2C(=O)O)NC(c2nccs2)=N[C@H]1c1ccc(F)cc1Cl [Compound 1, (S)-4-[(R)-6-(2-Chloro-4-fluoro-phenyl)-5-methoxycarbonyl-2-thiazol-2-yl-3,6-dihydro-pyrimidin-4-ylmethyl]-morpholine-3-carboxylic acid] | 19.9 nM | –
CCOC(=O)C1=C(CN2CCN3C(=O)N(CC(C)(C)C(=O)O)C[C@@H]3C2)NC(c2nccs2)=N[C@H]1c1cccc(F)c1Cl [Compound 3, 3-[(8aS)-7-[[(4R)-4-(2-chloro-3-fluoro-phenyl)-5-ethoxycarbonyl-2-thiazol-2-yl-1,4-dihydropyrimidin-6-yl]methyl]-3-oxo-5,6,8,8a-tetrahydro-1H-imidazo[1,5-a]pyrazin-2-yl]-2,2-dimethyl-propanoic acid] | 7.5 nM | –
COC(=O)C1=C(C)NC(c2ncc(F)cc2F)=N[C@H]1c1ccc(F)cc1Cl [Bay 41-4109] | – | in vivo efficacy (HBV DNA reduction) (HBV [2]): demonstrated in vivo efficacy with HBV DNA reduction
CCOC(=O)C1=C(CN2CCN3C(=O)N(CC(C)(C)C(=O)O)C[C@@H]3C2)NC(c2nccs2)=N[C@H]1c1cccc(F)c1C [Compound 2, 3-[(8aS)-7-[[(4S)-5-ethoxycarbonyl-4-(3-fluoro-2-methyl-phenyl)-2-thiazol-2-yl-1,4-dihydropyrimidin-6-yl]methyl]-3-oxo-5,6,8,8a-tetrahydro-1H-imidazo[1,5-a]pyrazin-2-yl]-2,2-dimethyl-propanoic acid] | 5.8 nM | –
C=C1[C@H](CO)[C@@H](O)C[C@@H]1n1cnc2c(=O)[nH]c(N)nc21 [Compound 6, Entecavir, reference compound] | – | EC50 (HBV [1]; Compound 6 alone, from the combination study with the Drug A of the same row, HBV DNA day 11 post infection, read-out: EC50 ± SD (n) Drug B): 0.07 nM

Now from value to compound, other results behind:

EC50 (HBV [1]; [3]) | Structure (SMILES) | further results
24.8 nM | COC(=O)C1=C(CN2CCN3C(=O)N(CC(C)(C)C(=O)O)CC3C2)NC(c2nccs2)=N[C@H]1c1ccc(F)cc1Cl (stereo in doubt) [Compound 5, 3-[(8aS)-7-[[(4R)-4-(2-chloro-4-fluoro-phenyl)-5-methoxycarbonyl-2-thiazol-2-yl-1,4-dihydropyrimidin-6-yl]methyl]-3-oxo-5,6,8,8a-tetrahydro-1H-imidazo[1,5-a]pyrazin-2-yl]-2,2-dimethyl-propanoic acid] | –
16.2 nM | COC(=O)C1=C(CN2CCN3C(=O)N(CC(C)(C)CC(=O)O)C[C@@H]3C2)NC(c2nccs2)=N[C@H]1c1ccc(F)cc1Cl [Compound 4, 4-[(8aS)-7-[[(4R)-4-(2-chloro-4-fluoro-phenyl)-5-methoxycarbonyl-2-thiazol-2-yl-1,4-dihydropyrimidin-6-yl]methyl]-3-oxo-5,6,8,8a-tetrahydro-1H-imidazo[1,5-a]pyrazin-2-yl]-3,3-dimethyl-butanoic acid] | –
